Converted amounts (≈) assume the structure as drawn.
Key:
[1] = tested on: Con A reaction of mouse splenic cell; assay: Effect on mitogenic responses (Con A reaction of mouse splenic mononuclear cells, [3H]-TdR incorporation); type: cell-based, C3H/HeN mice
Experimental: Splenic mononuclear cells (5×10^5) from C3H/HeN mice were suspended in 0.2 ml of RPMI 1640 medium containing 10% fetal bovine serum and 5×10^-5 M 2-mercaptoethanol (RPMI/FCS) and plated 96-well microtiter plates. The cells were cultured with 5 μg/ml of Concanavalin A (Con A; Type IV, Sigma Chemical Co.) for 72 hr at 37° C. in a humidified atmosphere of 5% carbon dioxide and 95% of air. PA-48153C was dissolved in dimethyl sulfoxide (DMSO) and added to the mitogenic response. The final concentration was not more than 100 ng/ml. Eighteen hours before harvesting, 0.5 μCi of tritiated thymidine ([^3 H]-TdR) was added to each well. The cells were harvested onto glass filter paper using a semi-automated multiple cell harvester, and [^3 H]-TdR incorporation was determined by liquid scintillation counter.

[2] = tested on: allo-MLR (C3H/HeN mouse splenic mononuclear cells with C57BL/6 mouse splenic mononuclear cells); assay: Allogenic mixed lymphocyte reaction (allo-MLR) in vitro, [3H]-TdR incorporation; type: cell-based; details: 144 h, 6 days, read-out: IC50 value inhibiting allo MLR
Experimental: Induction and assay of allo-MLR were performed in 96 well microtiter plates. C3H/HeN (H-2^k) mouse splenic mononuclear cells (5×10^5 cells in 0.1 ml of RPMI/FCS) were mixed with an equal volume of mitomycin C-treated (50 μg/ml, 37° C., 30 min, washed 3 times with RPMI 1640) C57BL/6 (H-2^b) mouse splenic mononuclear cells (5×10^5 cells) and incubated with RPMI/FCS in 96 well microtiter plate for 6 days under the same condition as described in 1). PA-48153C was added to the allo-MLR in such a manner that its final concentration was not more than 100 ng/ml. Eighteen hours before harvesting, 0.5 μCi of [^3 H]-TdR was pulsed to each well. The cells were harvested and assayed for allo-MLR by their ability to uptake [^3 H]-TdR incorporation.

CCD-19Lu = assay: Inhibition of cell growth (MTT); type: cell-based; details: Human normal lung, MEM, 2 × 10^4 cells/well, 3-4 days, read-out: IC50 (concentration inhibiting 50% cell growth)
Experimental: (§1) Each cell defined in Table 3 was put in each well of a 96-well microtiter plate in one 0.1 ml-scale containing the defined number of cells and preincubated for one day under the same condition as in 1). PA-48153C (0.1 ml) was added to each well in such a manner that its final concentration was in a range from 0 to 5,000 ng/ml. After 3-4 days incubation, 25 μl of 6 mg/ml MTT [3-(4,5-dimethylthiazol-2-yl)-2,5-diphenyltetrazolium bromide] (Sigma) was added to each well. After further incubation at 37° C. for 4 hr under the same condition, formazan generated therein was dissolved by adding 50 μl of 20% […] (SDS) in 0.02N HCl and allowing to stand at 37° C. for 24 hr. An amount of formazan generated in proportion to the number of live cells was determined according to optical density analyzed by an immunoreader (Sanko Junyaku k.k.) equipped with a 570 nm-filter (reference to J. Immunol. Methods 65, 55-63 (1983)). IC50 (concentration inhibiting 50% cell growth) was calculated from the correlativity of PA-48153C concentration with optical density.

P388 = assay: Inhibition of cell growth (MTT); type: cell-based; details: Mouse leukemia, RPMI 1640, 5 × 10^2 cells/well, 3-4 days, read-out: IC50 (concentration inhibiting 50% cell growth)
Experimental: as §1

LU-99 = assay: Inhibition of cell growth (MTT); type: cell-based, Human
Experimental: as §1

P388/ADM = assay: Inhibition of cell growth (MTT); type: cell-based, Mouse
Experimental: as §1

tumor cells = assay: Inhibition of cell growth (MTT), summary over tumor cells; type: cell-based
Experimental: as §1

[3] = tested on: Aspergillus fumigatus IFO 8866; assay: Antifungal activity, liquid doubling dilution method; type: cell-based; details: IFO8866, Sabouraud broth, 24 hr, 37° C., read-out: minimum inhibitory concentration (MIC)
Experimental: (§2) Antifungal activity of PA-48153C was determined according to the liquid doubling dilution method using Sabouraud or YNB broth.

Candida albicans KE-2 = assay: as above; type: cell-based; details: KE2, YNB broth, 48 hr, 37° C., read-out: minimum inhibitory concentration (MIC)
Experimental: as §2

Solubility = type: physicochemical

- IC50 ([1]; Mus musculus, Con A 5 μg/ml, 72 hr): 4.8 ng/mL (≈ 0.0148 µM)
- IC50 [2]: 3.1 ng/mL (≈ 0.00955 µM)
- IC50 (P388): 1.8 ng/mL (≈ 0.00555 µM)
- IC50 (P388/ADM; P388/ADM, Mouse leukemia (multi-resistant carcinoma), RPMI 1640, 5 × 10^2 cells/well, 3-4 days, read-out: IC50 (concentration inhibiting 50% cell growth)): 4.8 ng/mL (≈ 0.0148 µM)
- MIC [3]: 12500 ng/mL (≈ 38.5 µM)
- MIC (Candida albicans KE-2): 50000 ng/mL (≈ 154 µM)
- Solubility in water (Solubility; water): insoluble in water
SMILES: C/C=C/C[C@H](C)[C@@H](OC)[C@@H](C)[C@H](O)C[C@H]1OC(=O)C=C[C@H]1CC (relative stereo) [PA-48153C, (5R*,6R*)-5-ethyl-5,6-dihydro-6-[(E)-(2R*,3S*,4R*,5S*)-2-hydroxy-4-methoxy-3,5-dimethyl-7-nonenyl]-2H-pyran-2-one]
- inhibition at 0.0017 µg/mL ([1]; Mus musculus, PA-48153C 1.7 ng/ml, Con A 5 μg/ml, 72 hr): 83.8%
- inhibition at 0.0056 µg/mL ([1]; Mus musculus, PA-48153C 5.6 ng/ml, Con A 5 μg/ml, 72 hr): 61.6%
- inhibition at 0.05 µg/mL ([1]; Mus musculus, PA-48153C 50.0 ng/ml, Con A 5 μg/ml, 72 hr): 94%
- Radioactivity cpm ± SD ([1]; PA-48153C 1.7 ng/ml, Con A 5 μg/ml, 72 hr): 10,200 ± 451 cpm
- Radioactivity cpm ± SD ([1]; PA-48153C 5.6 ng/ml, Con A 5 μg/ml, 72 hr): 24,200 ± 883 cpm
- Radioactivity cpm ± SD ([1]; PA-48153C 50.0 ng/ml, Con A 5 μg/ml, 72 hr): 3,780 ± 141 cpm
- inhibition of proliferative response to Con A (in words) ([1]; splenic mononuclear cell from normal mice): inhibited the proliferative response of splenic mononuclear cell from normal mice to Con A in a dose-dependent fashion
- IC50 (CCD-19Lu): > 5000 ng/mL
- IC50 (LU-99; Lu-99, Human giant-cell carcinoma of lung, RPMI 1640, 2 × 10^3 cells/well, 3-4 days, read-out: IC50 (concentration inhibiting 50% cell growth)): 2.2 ng/mL (≈ 0.00678 µM)
- IC50 to normal lung cell CCD-19Lu relative to that to giant-cell carcinoma of lung Lu-99 (LU-99; ratio CCD-19Lu / Lu-99): at least 2,500 times
- growth inhibition of multi-resistant carcinoma P388/ADM (in words) (P388/ADM): strongly inhibits the growth of multi-resistant carcinoma P388/ADM
- growth inhibition of tumor cells (in words) (tumor cells): strongly inhibits the growth of tumor cells
- Solubility in organic solvents (Solubility; n-hexane, ethyl acetate, chloroform, methanol): soluble in n-hexane, ethyl acetate, chloroform, methanol

Source: patent publication US5314911A, “Immunosuppressive agent” (Shionogi Seiyaku Kabushiki Kaisha, priority 1992, dated 1994)
